Assay results as given in the supplement of paper PMC10307832.

How the values were obtained:
Test in all cases: relative viability (nuclei count vs DMSO), 5 days (fraction); higher = more cells survive
[1] = compound: CCC1=CN=CN=C1N2CCN(CC2)CC3=NC4=C(N3)C=C(C=C4)C(F)(F)F + Cc1cc(Nc2cc(N3CCN(C)CC3)nc(Sc3ccc(NC(=O)C4CC4)cc3)n2)n[nH]1 [Tozasertib] (partner 0.1 µM)
In short: (§1)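 Relative viability divides the nuclei count in treated wells by that in vehicle wells. Lung cancer cell lines were seeded in 1536-well plates, dosed by pin tool the next day, and fixed and stained after 5 days in one step with final 0.05% Triton X-100, 1% formaldehyde and 1 ug/ml Hoechst. Dosing was a single drug or a fixed anchor-drug dose plus five library-drug doses (not always all listed) in √10 steps, and values are medians of duplicate plates imaged at 4×.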

[2] = compound: CCC1=CN=CN=C1N2CCN(CC2)CC3=NC4=C(N3)C=C(C=C4)C(F)(F)F + O=C(CCCCCCC(=O)Nc1ccccc1)NO [Vorinostat] (partner 1 µM)
In short: as §1

[3] = compound: CCn1c(-c2nonc2N)nc2cnc(Oc3cccc(NC(=O)c4ccc(OCCN5CCOCC5)cc4)c3)cc21 + C[C@]1(O)C[C@@H](c2nc(-c3ccc4ccc(-c5ccccc5)nc4c3)c3c(N)nccn32)C1 [Linsitinib] (partner 1 µM)
In short: as §1

[4] = compound: N=C1NC(=O)/C(=C/c2ccc(O)cc2)S1 [Mirin] + N=C(N)NC(=N)NCCc1ccccc1 [Phenformin] (partner 250 µM)
In short: as §1

Row | Cell Line | relative viability ([1]; first compound 0.04 µM) | relative viability ([1]; first compound 0.1265 µM) | relative viability ([1]; first compound 0.4 µM) | relative viability ([1]; first compound 1.265 µM) | relative viability ([1]; first compound 4 µM) | relative viability ([2]; first compound 0.04 µM) | relative viability ([2]; first compound 0.1265 µM) | relative viability ([2]; first compound 0.4 µM) | relative viability ([2]; first compound 1.265 µM) | relative viability ([2]; first compound 4 µM) | relative viability ([3]; first compound 0.04 µM) | relative viability ([3]; first compound 0.1265 µM) | relative viability ([3]; first compound 1.265 µM) | relative viability ([3]; first compound 4 µM) | relative viability ([4]; first compound 0.25 µM) | relative viability ([4]; first compound 2.5 µM) | relative viability ([4]; first compound 7.906 µM) | relative viability ([4]; first compound 25 µM) | relative viability ([3]; first compound 0.4 µM) | relative viability ([4]; first compound 0.7906 µM)
1 | NCI-H23 | 0.341 | 0.361 | 0.346 | 0.305 | 0.361 | 0.567 | 0.65 | 0.453 | 0.606 | 0.808 | 0.636 | 0.827 | 0.549 | 0.477 | 0.817 | 0.747 | 0.753 | 0.862 |  | 
2 | NCI-H322M | 0.485 | 0.446 | 0.485 | 0.469 | 0.488 | 1.12 | 0.855 | 0.859 | 0.621 | 0.912 | 1.03 | 0.845 | 0.939 | 0.808 | 0.792 | 0.777 | 0.963 | 0.628 | 0.912 | 0.623
3 | NCI-H358 | 0.0937 | 0.0935 | 0.101 | 0.112 | 0.109 | 0.695 | 0.622 | 0.661 | 0.586 | 0.686 | 1.12 | 0.615 | 0.571 | 0.434 | 0.344 | 0.318 | 0.313 | 0.213 | 0.574 | 0.347
4 | NCI-H441 | 0.501 | 0.752 | 0.506 | 0.583 | 0.622 | 0.777 | 0.8 | 0.659 | 0.651 | 0.868 | 0.545 | 0.766 | 0.566 | 0.465 | 0.763 | 0.782 | 0.718 | 0.628 | 0.635 | 0.876
5 | NCI-H460 | 0.437 | 0.403 | 0.404 | 0.315 | 0.4 | 0.819 | 0.69 | 0.708 | 0.684 | 0.672 | 1.35 | 0.794 | 0.144 | 0.135 | 0.551 | 0.5 | 0.522 | 0.623 | 0.513 | 0.485
6 | NCI-H520 | 0.423 | 0.432 | 0.403 |  | 0.452 | 0.854 | 0.684 | 0.663 | 0.576 | 0.591 | 1.07 | 1.15 | 0.565 | 0.415 | 0.751 | 0.701 | 0.338 | 0.356 | 1.12 | 0.459
7 | NCI-H596 | 0.921 | 0.949 | 0.758 |  | 1.04 | 0.534 | 0.56 | 0.618 | 0.562 | 0.623 | 1.05 | 1.13 | 0.931 | 1.14 | 0.709 | 0.704 | 0.787 | 0.736 | 1.16 | 0.713
8 | NCI-H647 | 0.253 | 0.296 | 0.375 | 0.206 | 0.393 | 0.453 | 0.591 | 0.414 | 0.364 | 0.543 | 0.993 | 1 | 0.729 | 0.558 | 0.613 | 0.521 | 0.542 | 0.36 | 1.01 | 0.455
